Reference: ChEMBL document CHEMBL2086254, “Synthesis and identification of novel indolo[2,3-a]pyrimido[5,4-c]carbazoles as a new class of anti-cancer agents” (Eur J Med Chem, 2012)
The source made the active and inactive calls. The calls are words filed in the database; no cut-off is given here.

Tests used:
[1] = system: A498; experiment: Cytotoxicity against human A498 cells assessed as cell growth at 10 uM after 48 hrs by SRB assay relative to control; format: functional; settings: A498, 48 h, read-out: Activity
[2] = system: TK-10; experiment: Cytotoxicity against human TK10 cells assessed as cell growth at 10 uM after 48 hrs by SRB assay relative to control; format: functional; settings: TK-10, 48 h, read-out: Activity
[3] = system: SR; experiment: Cytotoxicity against human SR cells after 48 hrs by SRB assay; format: functional
[4] = system: HL-60; experiment: Cytotoxicity against human HL60 cells after 48 hrs by SRB assay; format: functional; settings: HL-60, 48 h
[5] = system: MOLT-4; experiment: Cytotoxicity against human MOLT4 cells after 48 hrs by SRB assay; format: functional; settings: MOLT-4, 48 h
[6] = system: SNB-75; experiment: Cytotoxicity against human SNB75 cells after 48 hrs by SRB assay; format: functional; settings: SNB-75, 48 h
[7] = system: LOX IMVI; experiment: Cytotoxicity in human LOXIMVI cells after 48 hrs by SRB assay; format: functional
[8] = system: OVCAR-8; experiment: Cytotoxicity against human OVCAR8 cells after 48 hrs by SRB assay; format: functional; settings: OVCAR-8, 48 h
[9] = system: A498; experiment: Cytotoxicity against human A498 cells after 48 hrs by SRB assay; format: functional; settings: A498, 48 h
[10] = system: SN12C; experiment: Cytotoxicity against human SN12C cells after 48 hrs by SRB assay; format: functional
[11] = system: SN12C; experiment: Cytotoxicity against human SN12C cells assessed as cell growth at 10 uM after 48 hrs by SRB assay relative to control; format: functional; settings: read-out: Activity
[12] = biological target: DNA topoisomerase 2-alpha (Homo sapiens) (UniProt P11388); experiment: Inhibition of human DNA topoisomerase 2 at 100 uM after 1 hr by agarose gel circular DNA decatenation assay
[13] = system: SNB-75; experiment: Cytotoxicity against human SNB75 cells assessed as cell growth at 10 uM after 48 hrs by SRB assay relative to control; format: functional; settings: SNB-75, 48 h, read-out: Activity
[14] = system: CCRF-CEM; experiment: Cytotoxicity against human CCRF-CEM cells assessed as cell growth at 10 uM after 48 hrs by SRB assay relative to control; format: functional; settings: read-out: Activity
[15] = system: HL-60; experiment: Cytotoxicity against human HL60 cells assessed as cell growth at 10 uM after 48 hrs by SRB assay relative to control; format: functional; settings: HL-60, 48 h, read-out: Activity
[16] = system: NCI-H522; experiment: Cytotoxicity against human NCI-H522 cells assessed as cell growth at 10 uM after 48 hrs by SRB assay relative to control; format: functional; settings: NCI-H522, 48 h, read-out: Activity
[17] = system: HT-29; experiment: Cytotoxicity against human HT-29 cells assessed as cell growth at 10 uM after 48 hrs by SRB assay relative to control; format: functional; settings: HT-29, 48 h, read-out: Activity
[18] = system: KM12; experiment: Cytotoxicity against human KM12 cells assessed as cell growth at 10 uM after 48 hrs by SRB assay relative to control; format: functional; settings: KM12, 48 h, read-out: Activity
[19] = system: OVCAR-3; experiment: Cytotoxicity against human OVCAR3 cells after 48 hrs by SRB assay; format: functional; settings: OVCAR-3, 48 h
[20] = Cytotoxicity against human breast cancer cell after 48 hrs by SRB assay; format: functional; settings: Cancer cell lines
[21] = system: SK-MEL-5; experiment: Cytotoxicity against human SK-MEL-5 cells after 48 hrs by SRB assay; format: functional; settings: SK-MEL-5, 48 h
[22] = system: A549; experiment: Cytotoxicity against human A549 cells assessed as cell growth at 10 uM after 48 hrs by SRB assay relative to control; format: functional; settings: A549, 48 h, read-out: Activity
[23] = system: SR; experiment: Cytotoxicity against human SR cells assessed as cell growth at 10 uM after 48 hrs by SRB assay relative to control; format: functional; settings: read-out: Activity
[24] = system: MOLT-4; experiment: Cytotoxicity against human MOLT4 cells assessed as cell growth at 10 uM after 48 hrs by SRB assay relative to control; format: functional; settings: MOLT-4, 48 h, read-out: Activity
[25] = system: NCI-H226; experiment: Cytotoxicity against human NCI-H226 cells assessed as cell growth at 10 uM after 48 hrs by SRB assay relative to control; format: functional; settings: NCI-H226, 48 h, read-out: Activity
[26] = system: NCI-H23; experiment: Cytotoxicity against human NCI-H23 cells assessed as cell growth at 10 uM after 48 hrs by SRB assay relative to control; format: functional; settings: NCI-H23, 48 h, read-out: Activity
[27] = system: NCI-H322M; experiment: Cytotoxicity against human NCI-H322M cells assessed as cell growth at 10 uM after 48 hrs by SRB assay relative to control; format: functional; settings: read-out: Activity
[28] = system: NCI-H460; experiment: Cytotoxicity against human NCI-H460 cells assessed as cell growth at 10 uM after 48 hrs by SRB assay relative to control; format: functional; settings: NCI-H460, 48 h, read-out: Activity
[29] = system: COLO 205; experiment: Cytotoxicity against human COLO205 cells assessed as cell growth at 10 uM after 48 hrs by SRB assay relative to control; format: functional; settings: COLO 205, 48 h, read-out: Activity
[30] = system: SK-MEL-5; experiment: Cytotoxicity against human SK-MEL-5 cells assessed as cell growth at 10 uM after 48 hrs by SRB assay relative to control; format: functional; settings: SK-MEL-5, 48 h, read-out: Activity
[31] = system: UACC-62; experiment: Cytotoxicity against human UACC62 cells assessed as cell growth at 10 uM after 48 hrs by SRB assay relative to control; format: functional; settings: UACC-62, 48 h, read-out: Activity
[32] = system: MDA-MB-231; experiment: Cytotoxicity against human MDA-MB-231 cells assessed as cell growth at 10 uM after 48 hrs by SRB assay relative to control; format: functional; settings: MDA-MB-231, 48 h, read-out: Activity
[33] = system: 786-0; experiment: Cytotoxicity against human 786-0 cells assessed as cell growth at 10 uM after 48 hrs by SRB assay relative to control; format: functional; settings: 786-0, 48 h, read-out: Activity
[34] = system: OVCAR-5; experiment: Cytotoxicity against human OVCAR5 cells assessed as cell growth at 10 uM after 48 hrs by SRB assay relative to control; format: functional; settings: OVCAR-5, 48 h, read-out: Activity
[35] = system: OVCAR-4; experiment: Cytotoxicity against human OVCAR4 cells assessed as cell growth at 10 uM after 48 hrs by SRB assay relative to control; format: functional; settings: OVCAR-4, 48 h, read-out: Activity
[36] = read-out: LC50 (the source's name)

Chain of DNA topoisomerase 2-alpha (Homo sapiens) (P11388 whole entry): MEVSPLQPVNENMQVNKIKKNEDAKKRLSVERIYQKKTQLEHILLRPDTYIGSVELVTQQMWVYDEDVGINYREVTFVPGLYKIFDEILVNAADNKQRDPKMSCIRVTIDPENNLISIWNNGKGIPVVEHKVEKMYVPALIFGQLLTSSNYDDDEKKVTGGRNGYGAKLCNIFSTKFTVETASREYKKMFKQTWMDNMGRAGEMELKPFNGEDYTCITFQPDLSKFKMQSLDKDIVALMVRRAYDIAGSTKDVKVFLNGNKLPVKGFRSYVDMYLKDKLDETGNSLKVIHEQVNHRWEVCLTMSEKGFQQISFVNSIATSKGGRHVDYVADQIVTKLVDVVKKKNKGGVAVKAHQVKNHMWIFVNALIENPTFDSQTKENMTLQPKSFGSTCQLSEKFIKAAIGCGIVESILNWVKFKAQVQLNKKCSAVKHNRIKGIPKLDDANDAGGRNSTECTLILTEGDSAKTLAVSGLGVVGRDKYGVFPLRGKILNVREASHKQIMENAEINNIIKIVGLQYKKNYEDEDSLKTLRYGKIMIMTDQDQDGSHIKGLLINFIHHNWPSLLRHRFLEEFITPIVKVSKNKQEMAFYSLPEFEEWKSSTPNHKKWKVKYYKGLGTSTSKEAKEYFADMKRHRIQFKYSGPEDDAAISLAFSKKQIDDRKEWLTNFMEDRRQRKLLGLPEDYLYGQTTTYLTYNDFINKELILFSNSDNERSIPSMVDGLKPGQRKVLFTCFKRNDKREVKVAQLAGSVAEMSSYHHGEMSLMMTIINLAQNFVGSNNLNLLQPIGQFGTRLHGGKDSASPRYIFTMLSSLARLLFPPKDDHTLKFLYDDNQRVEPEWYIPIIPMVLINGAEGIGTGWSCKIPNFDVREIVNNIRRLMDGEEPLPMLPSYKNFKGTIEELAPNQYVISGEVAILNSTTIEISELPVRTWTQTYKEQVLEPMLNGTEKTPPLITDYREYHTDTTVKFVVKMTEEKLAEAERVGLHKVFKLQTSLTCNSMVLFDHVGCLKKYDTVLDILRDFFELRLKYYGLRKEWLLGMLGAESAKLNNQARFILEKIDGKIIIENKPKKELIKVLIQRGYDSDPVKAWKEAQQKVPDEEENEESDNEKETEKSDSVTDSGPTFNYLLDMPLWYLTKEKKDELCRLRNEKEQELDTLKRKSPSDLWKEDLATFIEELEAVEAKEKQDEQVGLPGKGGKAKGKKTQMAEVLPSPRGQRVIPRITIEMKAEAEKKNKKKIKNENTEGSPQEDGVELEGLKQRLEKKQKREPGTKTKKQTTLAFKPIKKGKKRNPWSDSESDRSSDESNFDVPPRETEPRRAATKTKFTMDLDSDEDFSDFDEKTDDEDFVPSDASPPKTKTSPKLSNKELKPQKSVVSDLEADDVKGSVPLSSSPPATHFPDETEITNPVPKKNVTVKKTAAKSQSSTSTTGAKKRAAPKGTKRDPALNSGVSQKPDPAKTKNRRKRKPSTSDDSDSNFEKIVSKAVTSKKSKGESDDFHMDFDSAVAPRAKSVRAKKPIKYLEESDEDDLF

Cn1c2ccccc2c2c3nc(N)[nH]c(=O)c3c3c4ccccc4n(C)c3c21
growth at 10 µM [1]: 114%
growth at 10 µM [2]: 50.1%
GI50 [3]: 4.61 µM
TGI [3]: 41.8 µM
CC50 [3, 36]: > 100 µM
GI50 [4]: 4.19 µM
TGI [4]: 38 µM
CC50 [4, 36]: > 100 µM
GI50 [5]: 6.09 µM
TGI [5]: > 100 µM
CC50 [5, 36]: > 100 µM
GI50 [6]: 66.6 µM
TGI [6]: > 100 µM
CC50 [6, 36]: > 100 µM
GI50 [7]: 4.7 µM
TGI [7]: 31.1 µM
CC50 [7, 36]: > 100 µM
GI50 [8]: 3.82 µM
TGI [8]: > 100 µM
CC50 [8, 36]: > 100 µM
GI50 [9]: 27.4 µM
TGI [9]: 97.1 µM
CC50 [9, 36]: > 100 µM
GI50 [10]: 6.49 µM
TGI [10]: > 100 µM
CC50 [10, 36]: > 100 µM
growth at 10 µM [11]: 61.4%
inhibition [12]: inactive
growth at 10 µM [13]: 96.8%
growth at 10 µM [14]: 35.2%
growth at 10 µM [15]: 34.3%
growth at 10 µM [16]: 46.1%
growth at 10 µM [17]: 17.6%
growth at 10 µM [18]: 19.9%
GI50 [19]: 9.07 µM
TGI [19]: 25.6 µM
CC50 [19, 36]: 69.8 µM
GI50 [20]: 2.13 µM
TGI [20]: 44.1 µM
CC50 [20, 36]: > 100 µM
GI50 [21]: 3.25 µM
TGI [21]: 13.7 µM
CC50 [21, 36]: 37.9 µM
growth at 10 µM [22]: 58.5%
growth at 10 µM [23]: 64%
growth at 10 µM [24]: 53.3%
growth at 10 µM [25]: 78.1%
growth at 10 µM [26]: 65.4%
growth at 10 µM [27]: 32.9%
growth at 10 µM [28]: 40.6%
growth at 10 µM [29]: 67.9%
growth at 10 µM [30]: 48.8%
growth at 10 µM [31]: 81.3%
growth at 10 µM [32]: 103%
growth at 10 µM [33]: 62.3%

Cn1cc(-c2nc(N)[nH]c(=O)c2-c2cn(C)c3ccccc23)c2ccccc21
growth at 10 µM [1]: 112%
growth at 10 µM [2]: 82.3%
inhibition [12]: inactive
growth at 10 µM [13]: 103%
growth at 10 µM [15]: 103%
growth at 10 µM [16]: 86.7%
growth at 10 µM [17]: 94.3%
growth at 10 µM [18]: 103%
growth at 10 µM [22]: 101%
growth at 10 µM [23]: 110%
growth at 10 µM [24]: 105%
growth at 10 µM [25]: 91%
growth at 10 µM [26]: 95%
growth at 10 µM [27]: 88.6%
growth at 10 µM [28]: 90.7%
growth at 10 µM [29]: 104%
growth at 10 µM [30]: 101%
growth at 10 µM [31]: 96.1%
growth at 10 µM [32]: 105%
growth at 10 µM [33]: 122%

Cn1c2ccccc2c2c3c(=O)[nH]c(N)nc3c3c4cccnc4n(C)c3c21
growth at 10 µM [1]: 97.5%
growth at 10 µM [2]: 76.4%
growth at 10 µM [34]: 98.8%
growth at 10 µM [11]: 91%
inhibition [12]: inactive
growth at 10 µM [13]: 74.1%
growth at 10 µM [14]: 65.3%
growth at 10 µM [15]: 72.8%
growth at 10 µM [16]: 35%
growth at 10 µM [17]: 78%
growth at 10 µM [18]: 59%
growth at 10 µM [22]: 92.9%
growth at 10 µM [23]: 63.3%
growth at 10 µM [24]: 74.4%
growth at 10 µM [25]: 65%
growth at 10 µM [26]: 86.3%
growth at 10 µM [28]: 65.5%
growth at 10 µM [35]: 80.1%
growth at 10 µM [30]: 74.7%
growth at 10 µM [31]: 87%
growth at 10 µM [32]: 79.4%

Cn1cc(-c2[nH]c(=O)[nH]c(=O)c2-c2cn(C)c3ccccc23)c2ccccc21
growth at 10 µM [1]: 112%
growth at 10 µM [2]: 94.5%
growth at 10 µM [11]: 110%
inhibition [12]: inactive
growth at 10 µM [13]: 70.2%
growth at 10 µM [14]: 87.6%
growth at 10 µM [16]: 93.1%
growth at 10 µM [18]: 93.3%
growth at 10 µM [22]: 96.9%
growth at 10 µM [25]: 86.2%
growth at 10 µM [26]: 91.4%
growth at 10 µM [27]: 105%
growth at 10 µM [28]: 88.2%
growth at 10 µM [29]: 96.3%
growth at 10 µM [30]: 101%
growth at 10 µM [31]: 88.3%
growth at 10 µM [33]: 111%

Cn1cc(-c2[nH]c(=S)[nH]c(=O)c2-c2cn(C)c3ccccc23)c2ccccc21
growth at 10 µM [1]: 102%
growth at 10 µM [2]: 96.3%
growth at 10 µM [34]: 107%
growth at 10 µM [11]: 103%
inhibition [12]: inactive
growth at 10 µM [13]: 85.7%
growth at 10 µM [14]: 99%
growth at 10 µM [15]: 104%
growth at 10 µM [16]: 96.7%
growth at 10 µM [17]: 112%
growth at 10 µM [18]: 97.9%
growth at 10 µM [22]: 103%
growth at 10 µM [23]: 93.9%
growth at 10 µM [24]: 103%
growth at 10 µM [25]: 87.1%
growth at 10 µM [26]: 94.2%
growth at 10 µM [27]: 96.5%
growth at 10 µM [28]: 93%
growth at 10 µM [29]: 100%
growth at 10 µM [35]: 103%
growth at 10 µM [30]: 96.2%
growth at 10 µM [31]: 93.4%
growth at 10 µM [32]: 91.7%
growth at 10 µM [33]: 107%

Cn1cc(-c2c(-c3cn(C)c4ncccc34)nc(N)[nH]c2=O)c2ccccc21
growth at 10 µM [1]: 85.7%
growth at 10 µM [2]: 113%
growth at 10 µM [34]: 106%
growth at 10 µM [11]: 104%
growth at 10 µM [13]: 87.5%
growth at 10 µM [14]: 92.5%
growth at 10 µM [15]: 105%
growth at 10 µM [16]: 88%
growth at 10 µM [17]: 98.5%
growth at 10 µM [18]: 102%
growth at 10 µM [22]: 102%
growth at 10 µM [23]: 90.4%
growth at 10 µM [24]: 97.1%
growth at 10 µM [25]: 84.2%
growth at 10 µM [26]: 92.6%
growth at 10 µM [27]: 95.3%
growth at 10 µM [28]: 98.4%
growth at 10 µM [29]: 106%
growth at 10 µM [35]: 88%
growth at 10 µM [30]: 96.5%
growth at 10 µM [31]: 97%
growth at 10 µM [32]: 96.4%
growth at 10 µM [33]: 106%
